ChEMBL document CHEMBL1201862, “PubChem BioAssay data set” (2004)
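Briefly, cells in 96-well plates were exposed to five compound concentrations for 48 h, and endpoints were estimated by linear interpolation. GI50: concentration for 50% inhibition of growth.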 Activity calls are given as the source filed them. No stated cut-off is given here; in the data, active = GI50 up to about 1.1 µM and inactive = higher.

Legend:
Assay in all cases: NCI tumour cell line growth inhibition, 48 h
HT-29 = system: HT-29
TK-10 = system: TK-10
OVCAR-3 = system: OVCAR-3
SK-MEL-2 = system: SK-MEL-2
SF-295 = system: SF-295
HOP-62 = system: HOP-62
A498 = system: A498
CCRF-CEM = system: CCRF-CEM
COLO 205 = system: COLO 205
OVCAR-8 = system: OVCAR-8
NCI-H522 = system: NCI-H522
786-0 = system: 786-0
SF-539 = system: SF-539
SNB-75 = system: SNB-75
MOLT-4 = system: MOLT-4

SMILES | GI50 (HT-29) | GI50 (TK-10) | GI50 (OVCAR-3) | GI50 (SK-MEL-2) | GI50 (SF-295) | GI50 (HOP-62) | GI50 (A498) | GI50 (CCRF-CEM) | GI50 (COLO 205) | GI50 (OVCAR-8) | GI50 (NCI-H522) | GI50 (786-0) | GI50 (SF-539) | GI50 (SNB-75) | GI50 (MOLT-4)
COC(=O)C[C@H]1CCC2(OCCO2)[C@]1(C)C(=O)OC | > 100 µM (inactive) | > 100 µM (inactive) | > 100 µM (inactive) | > 100 µM (inactive) | > 100 µM (inactive) | > 100 µM (inactive) | > 100 µM (inactive) | > 100 µM (inactive) | > 100 µM (inactive) | > 100 µM (inactive) | > 100 µM (inactive) | > 100 µM (inactive) | > 100 µM (inactive) | > 100 µM (inactive) | > 100 µM (inactive)
CN(C)CCC(=O)/C=C\c1ccccc1 | 19.5 µM (inactive) | 18.5 µM (inactive) | 18.2 µM (inactive) | – | 20.3 µM (inactive) | 67.3 µM (inactive) | 20 µM (inactive) | 4.06 µM (inactive) | 15.8 µM (inactive) | 18.1 µM (inactive) | 18.9 µM (inactive) | 16.3 µM (inactive) | 16.8 µM (inactive) | 60.1 µM (inactive) | 13.5 µM (inactive)
CC(C)(CN1CCCCC1)C(=O)/C=C/c1ccc(Br)cc1 | 3.1 µM (inactive) | 3.13 µM (inactive) | 2.07 µM (inactive) | 3.69 µM (inactive) | 5.09 µM (inactive) | 3.85 µM (inactive) | 2.58 µM (inactive) | 2.77 µM (inactive) | 2.25 µM (inactive) | 2.39 µM (inactive) | 1.82 µM (inactive) | 2.15 µM (inactive) | 2.09 µM (inactive) | 5.89 µM (inactive) | 2.28 µM (inactive)
COc1ccc(NC(=O)/C(Cc2nc3ccccc3nc2O)=N\O)c(OC)c1 | > 100 µM (inactive) | > 100 µM (inactive) | > 100 µM (inactive) | – | > 100 µM (inactive) | > 100 µM (inactive) | > 100 µM (inactive) | > 100 µM (inactive) | > 100 µM (inactive) | > 100 µM (inactive) | > 100 µM (inactive) | > 100 µM (inactive) | > 100 µM (inactive) | > 100 µM (inactive) | –
COc1ccc([C@@H]2CC(=O)NCCCCNCCCN2)cc1 | > 100 µM (inactive) | > 100 µM (inactive) | – | > 100 µM (inactive) | > 100 µM (inactive) | > 100 µM (inactive) | > 100 µM (inactive) | > 100 µM (inactive) | > 100 µM (inactive) | > 100 µM (inactive) | > 100 µM (inactive) | > 100 µM (inactive) | > 100 µM (inactive) | > 100 µM (inactive) | > 100 µM (inactive)
CC1(C)OC2C(CCP(=O)(O)O)OC(c3nc(C(N)=O)cs3)C2O1 (stereo not drawn) | > 100 µM (inactive) | > 100 µM (inactive) | – | > 100 µM (inactive) | – | – | > 100 µM (inactive) | > 100 µM (inactive) | > 100 µM (inactive) | > 100 µM (inactive) | > 100 µM (inactive) | > 100 µM (inactive) | – | > 100 µM (inactive) | > 100 µM (inactive)
CCN(CC)CCCCC1CCN(CC(=O)N2c3ccccc3NC(=O)CC2C)CC1 (stereo not drawn) | > 100 µM (inactive) | > 100 µM (inactive) | > 100 µM (inactive) | > 100 µM (inactive) | > 100 µM (inactive) | > 100 µM (inactive) | > 100 µM (inactive) | 65.8 µM (inactive) | > 100 µM (inactive) | > 100 µM (inactive) | 30.3 µM (inactive) | > 100 µM (inactive) | > 100 µM (inactive) | > 100 µM (inactive) | > 100 µM (inactive)
CC1=NN(C(=O)CC(=O)N(C(=O)c2ccccc2Cl)c2ccc(C)cc2)C(=O)C1/N=N/c1ccc([N+](=O)[O-])cc1 (stereo not drawn) | > 63.4 µM (inactive) | 49.5 µM (inactive) | > 64.7 µM (inactive) | > 100 µM (inactive) | 58.5 µM (inactive) | 53.5 µM (inactive) | > 58.5 µM (inactive) | > 49.8 µM (inactive) | > 43.6 µM (inactive) | 27.9 µM (inactive) | > 100 µM (inactive) | 29 µM (inactive) | 23.7 µM (inactive) | > 43.6 µM (inactive) | > 100 µM (inactive)
O=C(Cc1ccccc1)NN1C(=O)C(Cl)C1c1cc(Br)ccc1O (stereo not drawn) | 7.64 µM (inactive) | 21.6 µM (inactive) | 2.56 µM (inactive) | 3.05 µM (inactive) | 6.19 µM (inactive) | 2.65 µM (inactive) | – | 0.755 µM (active) | 14.1 µM (inactive) | 3.87 µM (inactive) | 2.72 µM (inactive) | 5.89 µM (inactive) | – | 10.4 µM (inactive) | 1.04 µM (active)
Cc1nc2sccn2c1C(=O)N/N=C1\SCC(=O)N1C | > 100 µM (inactive) | > 100 µM (inactive) | > 100 µM (inactive) | > 100 µM (inactive) | > 100 µM (inactive) | > 100 µM (inactive) | – | > 100 µM (inactive) | > 100 µM (inactive) | > 100 µM (inactive) | > 100 µM (inactive) | > 100 µM (inactive) | > 100 µM (inactive) | – | > 100 µM (inactive)
Cc1cc(Cl)cc2c1NC(=O)C2(O)CC(=O)c1ccc(F)cc1 (stereo not drawn) | 48.1 µM (inactive) | > 100 µM (inactive) | 37.8 µM (inactive) | 73.3 µM (inactive) | 53.8 µM (inactive) | > 100 µM (inactive) | – | – | 24.8 µM (inactive) | 80.7 µM (inactive) | – | 27 µM (inactive) | 40.9 µM (inactive) | 26.5 µM (inactive) | –
O=C1CC2CCCC23CC2(CCN13)OCCO2 (stereo not drawn) | > 100 µM (inactive) | > 100 µM (inactive) | > 100 µM (inactive) | > 100 µM (inactive) | > 100 µM (inactive) | > 100 µM (inactive) | > 100 µM (inactive) | > 100 µM (inactive) | > 100 µM (inactive) | > 100 µM (inactive) | > 100 µM (inactive) | > 100 µM (inactive) | > 100 µM (inactive) | > 100 µM (inactive) | > 100 µM (inactive)
COC(=O)[C@@H](C)[C@H]1CC[C@@](C)(CCC2=C(C)CC3C=C(C)CCC3C2(C)C)OO1 (stereo partly drawn) | 1.42 µM (inactive) | 1.91 µM (inactive) | 1.92 µM (inactive) | 1.59 µM (inactive) | 1.79 µM (inactive) | 2.06 µM (inactive) | 1.8 µM (inactive) | 0.165 µM (active) | 1.66 µM (inactive) | 1.92 µM (inactive) | 0.167 µM (active) | 0.117 µM (active) | 1.82 µM (inactive) | 1.57 µM (inactive) | 1.04 µM (active)
O=C(O)CCCSC(=O)Nc1ccc(/N=N/c2ccccc2)cc1 | > 100 µM (inactive) | > 100 µM (inactive) | > 100 µM (inactive) | > 100 µM (inactive) | > 100 µM (inactive) | > 100 µM (inactive) | > 100 µM (inactive) | 31.7 µM (inactive) | > 100 µM (inactive) | > 100 µM (inactive) | > 100 µM (inactive) | > 100 µM (inactive) | > 100 µM (inactive) | – | 9.68 µM (inactive)
Cc1cc(C)c2[s+]snc2c1 | 52.5 µM (inactive) | > 100 µM (inactive) | 97.9 µM (inactive) | 75 µM (inactive) | > 100 µM (inactive) | 82.4 µM (inactive) | 37.7 µM (inactive) | 28.5 µM (inactive) | > 100 µM (inactive) | 33.7 µM (inactive) | 31.1 µM (inactive) | > 100 µM (inactive) | 70 µM (inactive) | > 100 µM (inactive) | 33.9 µM (inactive)
CC(=O)O[C@H]1C(=O)[C@@]2(C)C(C(OC(=O)c3ccccc3)C3[C@@H](O)C(OC(=O)[C@@H](O)[C@H](NC(=O)c4ccccc4)c4ccc(C(F)(F)F)cc4)C(C)=C1C3(C)C)[C@]1(OC(C)=O)CO[C@@H]1C[C@@H]2O (stereo partly drawn) | 12.6 µM (inactive) | > 25 µM (inactive) | 17.7 µM (inactive) | > 25 µM (inactive) | > 25 µM (inactive) | > 25 µM (inactive) | – | 18.2 µM (inactive) | 9.55 µM (inactive) | > 25 µM (inactive) | 7.59 µM (inactive) | > 25 µM (inactive) | 9.98 µM (inactive) | 7.71 µM (inactive) | 11 µM (inactive)
CCOC1=C2C(C)(CCC3[C@@]4(C)C=CC(=O)C(C)(C)C4CC(O)[C@@]23C)C(c2ccoc2)C1=O (stereo partly drawn) | 10.9 µM (inactive) | 25.2 µM (inactive) | 17 µM (inactive) | 19.2 µM (inactive) | 12.8 µM (inactive) | 20.5 µM (inactive) | 17.3 µM (inactive) | 7.93 µM (inactive) | 13.1 µM (inactive) | 18.3 µM (inactive) | – | 15.3 µM (inactive) | 17.6 µM (inactive) | 54.3 µM (inactive) | 7 µM (inactive)
COc1ccc(C(=O)C#Cc2cnc(O)nc2O)cc1 | 11.5 µM (inactive) | 9.31 µM (inactive) | 9.1 µM (inactive) | 7.46 µM (inactive) | 33 µM (inactive) | 19.7 µM (inactive) | 23.7 µM (inactive) | 2.52 µM (inactive) | 11.9 µM (inactive) | 8.81 µM (inactive) | 3.12 µM (inactive) | 9.06 µM (inactive) | 7.33 µM (inactive) | 23.8 µM (inactive) | 2.34 µM (inactive)
CC[C@@]1(O)C(=O)OCc2c1cc1n(c2=O)Cc2cc3c(OC)cccc3nc2-1 | – | 3.74 µM (inactive) | 0.521 µM (active) | 0.834 µM (active) | < 0.1 µM (active) | – | 0.6 µM (active) | < 0.01 µM (active) | 1.21 µM (inactive) | – | 0.145 µM (active) | 0.211 µM (active) | < 0.1 µM (active) | 0.0622 µM (active) | 0.14 µM (active)
